Measurements reported in patent US20120022045A1, “BRIDGED COMPOUNDS AS HIV INTEGRASE INHIBITORS” (priority 2009, published 2012).
pIC50: −log10 of the molar value. Like-named read-outs stand apart in the source and are kept apart here.

Legend:
Format in all cases: cell-based
[1] = tested on: HIV-1 integrase mutant virus Y143R; assay: Single cycle infectivity assay in HeLa P4-2 cells, integrase mutant Y143R virus; conditions: fold shift in IC50 versus wild type IIIB
Description: (§1) An assay for measuring the inhibition of acute HIV-1 infection with HeLa P4-2 cells in a single cycle infectivity assay was conducted using methods described in Joyce et al., J. Biol. Chem. 2002, 277: 45811, Hazuda et al., Science 2000, 287: 646, and Kimpton et al, J. Virol. 1992, 66: 2232. Proviral plasmids encoding viruses containing specific mutations in the integrase gene (N155H, Q148R, Y143R, E92Q, or G140S/Q148H) were generated by site-directed mutagenesis, and viruses were produced by transfecting 293T cells with the appropriate proviral plasmids.

[2] = tested on: HIV-1 integrase mutant virus G140S/Q148H; assay: Single cycle infectivity assay in HeLa P4-2 cells, integrase mutant G140S/Q148H virus; conditions: fold shift in IC50 versus wild type IIIB
Description: as §1

[3] = tested on: HIV-1 integrase mutant virus Q148R; assay: Single cycle infectivity assay in HeLa P4-2 cells, integrase mutant Q148R virus; conditions: fold shift in IC50 versus wild type IIIB
Description: as §1

[4] = tested on: HIV-1 wild type IIIB; assay: Single cycle infectivity assay in HeLa P4-2 cells, wild type virus
Description: as §1

[5] = tested on: HIV-1; assay: Inhibition of acute HIV-1 infection of T-lymphoid cells (spread assay); conditions: 10% FBS, read-out: IC95 (nM) in the presence of 10% FBS
Description: Assays for the inhibition of acute HIV-1 infection of T-lymphoid cells were conducted in accordance with Vacca, J. P. et al., Proc. Natl. Acad. Sci. USA 1994, 91: 4096.

[6] = tested on: HIV-1 integrase mutant virus N155H; assay: Single cycle infectivity assay in HeLa P4-2 cells, integrase mutant N155H virus; conditions: fold shift in IC50 versus wild type IIIB
Description: as §1

[7] = Human immunodeficiency virus 1, IIIB, HeLaP4-2, wild type IIIB
[8] = Human immunodeficiency virus 1, T-lymphoid

## CNC(=O)C(=O)N(C)C12CCC(OC1)C(C)n1c2nc(C(=O)NCc2ccc(F)cc2)c(O)c1=O (single isomer, unassigned) [Example 28A, N-(4-{[(4-fluorobenzyl)amino]carbonyl}-5-hydroxy-8-methyl-6-oxo-10-oxa-3,7-diazatricyclo[7.2.2.0^2,7]trideca-2,4-dien-1-yl)-N,N′-dimethylethanediamide]
[1]
  Y143R (shift): 1 fold
[2]
  G140S/Q148H (shift): 4 fold
[3]
  Q148R (shift): 1 fold
[4]; [7]
  pIC50: 7.34
[5]; [8]
  IC95: 17.8 nM
[6]
  N155H (shift): 3 fold

## CN(C)C(=O)C(=O)N(C)C12CCC(O)(CC1)Cn1c2nc(C(=O)NCc2ccc(F)cc2)c(O)c1=O [Example 17, N-(4-{[(4-Fluorobenzyl)amino]carbonyl}-5,9-dihydroxy-6-oxo-3,7-diazatricyclo[7.2.2.0^2,7]trideca-2,4-dien-1-yl)-N,N′,N′-trimethylethanediamide]
[1]
  Y143R (shift): 1 fold
[2]
  G140S/Q148H (shift): 38 fold
[3]
  Q148R (shift): 3 fold
[4]; [7]
  pIC50: 7.34
[5]; [8]
  IC95: 20.5 nM
[6]
  N155H (shift): 3 fold

## CCC12CCC(N(C)C(=O)C(=O)N(C)C)(CO1)c1nc(C(=O)NCc3ccc(F)cc3)c(O)c(=O)n1C2 (single isomer, unassigned) [Example 20A, N-(9-ethyl-4-{[(4-fluorolbenzyl)amino]carbonyl}-5-hydroxy-6-oxo-10-oxa-3,7-diazatricyclo[7.2.2.0^2,7]trideca-2,4-dien-1-yl)-N,N′,N′-trimethylethanediamide]
[1]
  Y143R (shift): 1 fold
[2]
  G140S/Q148H (shift): 21 fold
[3]
  Q148R (shift): 2 fold
[4]; wild type IIIB
  pIC50: 8.10
[5]; [8]
  IC95: 11 nM
[6]
  N155H (shift): 3 fold

## CC1C2CCC(N(C)C(=O)C(=O)N(C)C)(CO2)c2nc(C(=O)NCc3ccc(F)cc3)c(O)c(=O)n21 (single isomer, unassigned) [Example 27B, N-(4-{[(4-fluorobenzyl)amino]carbonyl}-5-hydroxy-8-methyl-6-oxo-10-oxa-3,7-diazatricyclo[7.2.2.0^2,7]trideca-2,4-dien-1-yl)-N,N′,N′-trimethylethanediamide]
[1]
  Y143R (shift): 7 fold
[2]
  G140S/Q148H (shift): >70 fold
[3]
  Q148R (shift): 9 fold
[4]; wild type IIIB
  pIC50: 7.62
[5]
  IC95: 27.3 nM
[6]
  N155H (shift): 20 fold

## CCC1C2CCC(N(C)C(=O)C(=O)N(C)C)(CO2)c2nc(C(=O)NCc3ccc(F)cc3)c(O)c(=O)n21 (single isomer, unassigned) [Example 25B, N-(8-ethyl-4-{[(4-fluorobenzyl)amino]carbonyl}-5-hydroxy-6-oxo-10-oxa-3,7-diazatricyclo[7.2.2.0^2,7]trideca-2,4-dien-1-yl)-N,N′,N′-trimethylethanediamide]
[1]
  Y143R (shift): 1 fold
[2]
  G140S/Q148H (shift): 1 fold
[3]
  Q148R (shift): 1 fold
[4]; wild type IIIB
  pIC50: 8.10
[5]
  IC95: 7.9 nM
[6]
  N155H (shift): 1 fold

## CN(C(=O)C(=O)N1CCOCC1)C12CCC(Cn3c1nc(C(=O)NCc1ccc(F)cc1)c(O)c3=O)C2 (stereo not drawn) [Example 9, N-(4-Fluorobenzyl)-3-hydroxy-10-{methyl[morpholin-4-yl(oxo)acetyl]amino}-4-oxo-4,6,7,8,9,10-hexahydro-7,10-methanopyrimido[1,2-a]azepine-2-carboxamide]
[1]
  Y143R (shift): 2 fold
[2]
  G140S/Q148H (shift): 40 fold
[3]
  Q148R (shift): 11 fold
[4]; [7]
  pIC50: 7.37
[5]; [8]
  IC95: 15 nM
[6]
  N155H (shift): 5 fold

## CN(C)C(=O)C(=O)N(C)C12CCC(CC1)n1c2nc(C(=O)NCc2ccc(F)cc2)c(O)c1=O [Example 30]
[1]
  Y143R (shift): 3 fold
[2]
  G140S/Q148H (shift): 32 fold
[3]
  Q148R (shift): 9 fold
[4]; [7]
  pIC50: 7.77
[5]; [8]
  IC95: 22.4 nM
[6]
  N155H (shift): 7 fold

## CCC1C2CCC(NC(=O)C(=O)N(C)C)(CO2)c2nc(C(=O)NCc3ccc(F)cc3)c(O)c(=O)n21 (single isomer, unassigned) [Example 26A, N′-(8-ethyl-4-{[(4-fluorobenzyl)amino]carbonyl}-5-hydroxy-6-oxo-10-oxa-3,7-diazatricyclo[7.2.2.0^2,7]trideca-2,4-dien-1-yl)-N-dimethylethanediamide]
[1]
  Y143R (shift): 2 fold
[2]
  G140S/Q148H (shift): >70 fold
[3]
  Q148R (shift): 9 fold
[4]; wild type IIIB
  pIC50: 7.62
[5]
  IC95: 16.0 nM
[6]
  N155H (shift): 9 fold

## CCC1C2CCC(NC(=O)C(=O)N(C)C)(CO2)c2nc(C(=O)NCc3ccc(F)cc3)c(O)c(=O)n21 (single isomer, unassigned) [Example 26C, N′-(8-ethyl-4-{[(4-fluorobenzyl)amino]carbonyl}-5-hydroxy-6-oxo-10-oxa-3,7-diazatricyclo[7.2.2.0^2,7]trideca-2,4-dien-1-yl)-N-dimethylethanediamide]
[1]
  Y143R (shift): 2 fold
[2]
  G140S/Q148H (shift): 26 fold
[3]
  Q148R (shift): 9 fold
[4]; wild type IIIB
  pIC50: 7.64
[5]
  IC95: 18.1 nM
[6]
  N155H (shift): 12 fold

## CCC1C2CCC(NC(=O)C(=O)N(C)C)(CO2)c2nc(C(=O)NCc3ccc(F)cc3)c(O)c(=O)n21 (single isomer, unassigned) [Example 26B, N′-(8-ethyl-4-{[(4-fluorobenzyl)amino]carbonyl}-5-hydroxy-6-oxo-10-oxa-3,7-diazatricyclo[7.2.2.0^2,7]trideca-2,4-dien-1-yl)-N-dimethylethanediamide]
[1]
  Y143R (shift): 1 fold
[2]
  G140S/Q148H (shift): 1 fold
[3]
  Q148R (shift): 1 fold
[4]; wild type IIIB
  pIC50: 7.44
[5]
  IC95: 22.6 nM
[6]
  N155H (shift): 1 fold

## CCC12CCC(NC(=O)C(=O)N(C)C)(CO1)c1nc(C(=O)NCc3ccc(F)cc3)c(O)c(=O)n1C2 (single isomer, unassigned) [Example 22A, N′-(9-ethyl-4-{[(4-fluorolbenzyl)amino]carbonyl}-5-hydroxy-6-oxo-10-oxa-3,7-diazatricyclo[7.2.2.0^2,7]trideca-2,4-dien-1-yl)-N,N-dimethylethanediamide]
[1]
  Y143R (shift): 5 fold
[2]
  G140S/Q148H (shift): 198 fold
[3]
  Q148R (shift): 24 fold
[4]; wild type IIIB
  pIC50: 8.15
[5]; [8]
  IC95: 12.7 nM
[6]
  N155H (shift): 23 fold

## COC12CCC(N(C)C(=O)C(=O)N(C)C)(CC1)c1nc(C(=O)NCc3ccc(F)c(C)c3)c(O)c(=O)n1C2 [Example 14, N-(4-{[(4-Fluoro-3-methylbenzyl)amino]carbonyl}-5-hydroxy-9-methoxy-6-oxo-3,7-diazatricyclo[7.2.2.0^2,7]trideca-2,4-dien-1-yl)-N,N′,N′-trimethylethanediamide]
[1]
  Y143R (shift): 2 fold
[2]
  G140S/Q148H (shift): 4 fold
[3]
  Q148R (shift): 1 fold
[4]; [7]
  pIC50: 7.92
[5]; [8]
  IC95: 13.1 nM
[6]
  N155H (shift): 2 fold

## CN(C)C(=O)C(=O)N(C)C12CCC(Cn3c1nc(C(=O)NCc1ccc(F)cc1)c(O)c3=O)OC2 (single isomer, unassigned) [Example 23A]
[1]
  Y143R (shift): 1 fold
[2]
  G140S/Q148H (shift): 84 fold
[3]
  Q148R (shift): 6 fold
[4]; wild type IIIB
  pIC50: 7.68
[5]
  IC95: 16.7 nM
[6]
  N155H (shift): 7 fold

## CN(C)C(=O)C(=O)N(C)C12CCC(C)(Cn3c1nc(C(=O)NCc1ccc(F)cc1)c(O)c3=O)OC2 (single isomer, unassigned) [Example 21A]
[1]
  Y143R (shift): 1 fold
[2]
  G140S/Q148H (shift): 73 fold
[3]
  Q148R (shift): 3 fold
[4]; [7]
  pIC50: 7.70
[5]; [8]
  IC95: 20 nM
[6]
  N155H (shift): 3 fold
